Values of other authors as cited in US6585958B1, “Medicinal aerosol formulations” (Jago Research AG, priority 1998, dated 2003).

Conditions: at 20° C.

density	vapor pressure	SMILES
about 1.4 mg/ml	about 4.2 bar	FC(C(F)(F)F)C(F)(F)F [HFA 227, 1,1,1,2,3,3,3-heptafluoropropane]
about 1.2 mg/ml	about 6 bar	FCC(F)(F)F [HFA 134a, 1,1,1,2-tetrafluoroethane]
